From US20240390388A1, “TRICYCLIC COMPOUNDS AND USE THEREOF” (MEDSHINE DISCOVERY INC., priority 2021, published 2024)
Where two headings read alike, the source gives them in different places.

Assays:
[1] = In vivo plasma/brain tissue distribution study in male SD rats; conditions: oral 10 mpk
Text: Experimental purpose: Male SD rats were used as test animals to determine plasma concentrations of compounds and drug concentrations of brain tissue and cerebrospinal fluid after a single administration, and to evaluate the brain entry of the compound of the present disclosure.
Experimental operation: 12 healthy adult male SD rats were selected. The compound to be tested was mixed with an appropriate amount of solvent (DMSO/solvent/water (10:10:80 v/v/v)) for the oral administration group. The mixture was vortexed and sonicated to prepare a 1.0 mg/mL clear solution for further use. After oral administration of 10 mg/kg to rats, whole blood, brain tissue, and cerebrospinal fluid for a certain period of time were collected to prepare plasma, brain homogenate, and cerebrospinal fluid. The drug concentration was analyzed by LC-MS/MS method, and the pharmacokinetic parameters were calculated by Phoenix WinNonlin software (Pharsight, USA).

MDR1 = assay: MDCK-MDR1 permeability test; assay type: in vitro ADME; conditions: dog, pH 7.4, 2.5 hours
Protocol: Compounds in DMSO stock solution were diluted to 2 μM (DMSO<1%) with a transport buffer (HBSS with 10 mM Hepes, pH 7.4) and applied to the apical side or the basolateral side of the cell monolayer. Permeation of compounds from the A to B direction or from the B to A direction was determined in duplicate. The plate was incubated for 2.5 hours in a CO2 incubator at a temperature of 37+1° C. in a saturated humidity containing 5% CO2 without shaking. In addition, the efflux rate of each compound was also determined. Compounds were quantified by LC-MS/MS analysis based on the peak area ratio of analyte/IS.
After the transport assay, cell monolayer integrity was determined using the fluorescein exclusion test. The buffer was removed from the apical and basolateral chambers. Then 75 μL of 100 μM fluorescein transport buffer and 250 μL of transport buffer were added to the apical and basolateral chambers, respectively. The plate was incubated at 37° C., 5% CO2 and saturated humidity for 30 min without shaking. After 30 min of incubation, 20 μL of fluorescein sample was collected from the apical side, and 60 μL of transport buffer was added. An 80 μL of fluorescein sample was then collected from the basolateral side. Relative fluorescence units (RFU) of fluorescein were measured at 425/528 nm (excitation/emission) with an Envision microplate reader.

PI3K γ = target: T1, PI3K γ (Homo sapiens, UniProt P48736); assay: Enzyme activity test in vitro (ADP-Glo lipid kinase), PI3K γ; assay type: biochemical; conditions: ATP 25 μM, 120 min
T1 construct: purchased Millipore 14-558-K
T1 sequence (P48736 whole entry): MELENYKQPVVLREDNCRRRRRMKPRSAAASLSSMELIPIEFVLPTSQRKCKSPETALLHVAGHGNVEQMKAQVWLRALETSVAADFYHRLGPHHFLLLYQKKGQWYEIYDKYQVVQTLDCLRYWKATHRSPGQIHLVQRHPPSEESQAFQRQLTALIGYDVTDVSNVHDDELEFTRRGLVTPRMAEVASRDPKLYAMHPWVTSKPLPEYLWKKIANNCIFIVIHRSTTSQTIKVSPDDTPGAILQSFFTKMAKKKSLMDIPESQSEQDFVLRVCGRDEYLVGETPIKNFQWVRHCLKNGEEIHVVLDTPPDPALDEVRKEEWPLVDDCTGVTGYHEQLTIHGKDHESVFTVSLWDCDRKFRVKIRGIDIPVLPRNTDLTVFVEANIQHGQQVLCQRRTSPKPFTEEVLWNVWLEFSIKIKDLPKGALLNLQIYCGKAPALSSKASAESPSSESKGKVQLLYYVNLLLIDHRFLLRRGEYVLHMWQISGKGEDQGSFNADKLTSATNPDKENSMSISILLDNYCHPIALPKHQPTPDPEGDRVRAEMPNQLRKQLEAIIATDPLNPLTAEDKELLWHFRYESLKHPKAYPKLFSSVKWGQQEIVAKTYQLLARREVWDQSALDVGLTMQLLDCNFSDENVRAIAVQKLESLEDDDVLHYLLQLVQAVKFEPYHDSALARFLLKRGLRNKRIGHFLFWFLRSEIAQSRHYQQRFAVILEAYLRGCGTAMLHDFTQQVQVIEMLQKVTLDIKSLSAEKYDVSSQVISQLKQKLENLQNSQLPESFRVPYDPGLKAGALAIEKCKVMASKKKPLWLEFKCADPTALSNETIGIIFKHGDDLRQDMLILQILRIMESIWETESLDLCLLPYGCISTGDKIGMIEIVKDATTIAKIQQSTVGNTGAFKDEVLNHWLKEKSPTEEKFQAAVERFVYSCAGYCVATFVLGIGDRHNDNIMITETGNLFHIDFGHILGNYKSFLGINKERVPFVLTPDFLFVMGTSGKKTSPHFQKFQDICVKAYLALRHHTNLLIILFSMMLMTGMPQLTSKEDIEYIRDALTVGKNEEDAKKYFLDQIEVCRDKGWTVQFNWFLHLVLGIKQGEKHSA
Protocol: (§1) The lipid kinase reaction was carried out under the conditions of the appropriate substrate and ATP. Then the kinase activity was tested with the ADP-Glo™ kit in two steps. Step 1: The kinase reaction was terminated, in which residual ATP was completely removed, and only ADP was remained; Step 2: Kinase test reagent was added to convert ADP into ATP, accompanied by luciferin/luciferase reaction. Finally, the […] numerical output value was converted into kinase activity.
(§2) b) Kit: ADP-Glo™ Lipid Kinase and PIP2: 3PS Kit (Promega #V1792)
(§3) b) Final test system conditions: 1× reaction system: 50 mM HEPES, 50 mM NaCl, 3 mM MgCl2, 0.01% BSA (freshly prepared on the day of the experiment), 1% DMSO (v/v) +/−compound
(§4) c) Reaction system: 3 μL mixture of enzyme and substrate (1:1)+2 μL ATP/MgCl2 mixture +5 μL ADP-Glo reagent+10 μL assay reagent.
(§5) a) Compound dilution: 50 nL of 100× compound/DMSO was transferred to the test well plate with Echo
(§6) For PI3K β/PI3K δ/PI3K γ, the compounds were diluted three-fold from the highest concentration of 1.11 mM for a total of 10 concentrations.
(§7) (1) The compound to be tested was prepared. 50 nL of […] compound solution or DMSO was added to the corresponding well plate. […]
(§8) (16) Fluorescence values were measured on an Envision instrument.

PI3K α = target: T2, PI3K α (Homo sapiens, UniProt P42336); assay: Enzyme activity test in vitro (ADP-Glo lipid kinase), PI3K α; assay type: biochemical; conditions: ATP 40 μM, 120 min
T2 construct: purchased Millipore 14-602-K
T2 sequence (P42336 whole entry): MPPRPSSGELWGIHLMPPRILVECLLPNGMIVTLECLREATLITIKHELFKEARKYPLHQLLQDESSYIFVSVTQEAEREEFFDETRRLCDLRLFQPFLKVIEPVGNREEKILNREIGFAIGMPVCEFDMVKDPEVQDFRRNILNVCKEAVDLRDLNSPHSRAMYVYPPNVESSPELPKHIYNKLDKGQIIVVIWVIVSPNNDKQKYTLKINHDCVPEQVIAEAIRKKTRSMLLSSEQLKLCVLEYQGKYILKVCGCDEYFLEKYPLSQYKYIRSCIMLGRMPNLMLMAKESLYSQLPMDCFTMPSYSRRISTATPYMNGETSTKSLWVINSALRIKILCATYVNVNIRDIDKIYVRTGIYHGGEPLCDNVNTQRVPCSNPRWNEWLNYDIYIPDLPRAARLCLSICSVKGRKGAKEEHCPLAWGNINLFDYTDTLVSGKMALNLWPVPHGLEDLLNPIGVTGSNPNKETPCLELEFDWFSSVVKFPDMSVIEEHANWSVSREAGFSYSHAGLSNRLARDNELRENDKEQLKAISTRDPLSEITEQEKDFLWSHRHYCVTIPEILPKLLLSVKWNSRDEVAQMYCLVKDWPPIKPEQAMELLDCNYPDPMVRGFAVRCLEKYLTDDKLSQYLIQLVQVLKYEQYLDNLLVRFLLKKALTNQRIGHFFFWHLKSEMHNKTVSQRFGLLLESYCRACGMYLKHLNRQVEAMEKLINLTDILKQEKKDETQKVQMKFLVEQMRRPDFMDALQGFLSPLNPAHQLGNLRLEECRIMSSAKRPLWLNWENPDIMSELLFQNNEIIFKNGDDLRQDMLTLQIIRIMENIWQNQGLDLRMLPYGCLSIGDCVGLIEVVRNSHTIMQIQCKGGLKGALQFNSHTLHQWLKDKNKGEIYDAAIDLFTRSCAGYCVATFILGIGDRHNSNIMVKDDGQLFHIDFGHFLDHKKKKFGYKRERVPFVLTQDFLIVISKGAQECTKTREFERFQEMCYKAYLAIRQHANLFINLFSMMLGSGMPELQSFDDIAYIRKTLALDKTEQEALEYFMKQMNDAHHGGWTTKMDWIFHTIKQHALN
T2 sequence (P27986 whole entry partner): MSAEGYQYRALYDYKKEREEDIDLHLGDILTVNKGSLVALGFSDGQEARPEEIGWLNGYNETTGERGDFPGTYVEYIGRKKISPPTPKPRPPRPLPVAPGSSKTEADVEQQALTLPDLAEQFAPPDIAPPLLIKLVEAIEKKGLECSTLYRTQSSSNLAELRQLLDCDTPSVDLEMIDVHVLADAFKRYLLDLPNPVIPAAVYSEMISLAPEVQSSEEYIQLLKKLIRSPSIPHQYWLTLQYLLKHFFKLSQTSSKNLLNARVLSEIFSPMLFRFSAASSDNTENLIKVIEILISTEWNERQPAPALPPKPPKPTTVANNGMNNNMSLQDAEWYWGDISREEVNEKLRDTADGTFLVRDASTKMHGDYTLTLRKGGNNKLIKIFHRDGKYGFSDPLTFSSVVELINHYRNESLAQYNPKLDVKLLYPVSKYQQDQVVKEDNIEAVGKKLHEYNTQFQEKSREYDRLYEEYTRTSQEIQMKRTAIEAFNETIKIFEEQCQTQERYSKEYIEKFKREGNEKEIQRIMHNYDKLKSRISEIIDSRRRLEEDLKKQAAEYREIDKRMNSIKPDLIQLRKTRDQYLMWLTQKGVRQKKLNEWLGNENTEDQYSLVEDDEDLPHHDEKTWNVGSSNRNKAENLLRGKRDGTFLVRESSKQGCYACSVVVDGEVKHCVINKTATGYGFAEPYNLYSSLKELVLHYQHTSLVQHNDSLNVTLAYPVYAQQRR
Protocol: as §1, §2, §3, §4, §5
For PI3K α, the compounds were diluted three-fold from the highest concentration of 0.111 mM for a total of 10 concentrations.
as §7, §8

[2] = Rat plasma-protein binding; assay type: in vitro ADME
[3] = tested on: HCC1954 cells with PIK3CA mutation; assay: Cell activity test in vitro, anti-proliferation by CTG method, HCC1954; assay type: cell-based; conditions: 72 hours
Protocol: By CTG method, the effect of the compound to be tested on the anti-proliferation activity of cells was determined in two cell lines, HCC1954 and HDQ-P1.
(1) HCC1954 and HDQ-P1 cells (ATCC® HTB-22™) were inoculated into 96-well plates, respectively, with 100 μL of cell complete medium per well (4000 cells/HDQ-P1 per well, 3500 cells/HCC1954 per well). Cells were cultured at 37° C., 5% CO2 for 24 hours.
(2) The cell complete medium was replaced by 100 μL of serum-free medium. The cells were starved overnight.
(3) Compounds were prepared (the starting concentration of the compound was 10 μM, and diluted 3-fold for 8 concentrations. Each concentration of the compound was then diluted 100-fold with serum-free medium), and 25 μL of the diluted compound was added to the plate containing the cells.
(4) The well plate was incubated at 37° C., 5% CO2 for 72 hours (HCC1954) or 120 hours (HDQ-P1).
(5) Subsequent operations were performed according to the instructions of the Promega CTG kit.

PI3K δ = target: T3, PI3K δ (Homo sapiens, UniProt O00329); assay: Enzyme activity test in vitro (ADP-Glo lipid kinase), PI3K δ; assay type: biochemical; conditions: ATP 40 μM, 120 min
T3 construct: purchased Millipore 14-604-K
T3 sequence (O00329 whole entry): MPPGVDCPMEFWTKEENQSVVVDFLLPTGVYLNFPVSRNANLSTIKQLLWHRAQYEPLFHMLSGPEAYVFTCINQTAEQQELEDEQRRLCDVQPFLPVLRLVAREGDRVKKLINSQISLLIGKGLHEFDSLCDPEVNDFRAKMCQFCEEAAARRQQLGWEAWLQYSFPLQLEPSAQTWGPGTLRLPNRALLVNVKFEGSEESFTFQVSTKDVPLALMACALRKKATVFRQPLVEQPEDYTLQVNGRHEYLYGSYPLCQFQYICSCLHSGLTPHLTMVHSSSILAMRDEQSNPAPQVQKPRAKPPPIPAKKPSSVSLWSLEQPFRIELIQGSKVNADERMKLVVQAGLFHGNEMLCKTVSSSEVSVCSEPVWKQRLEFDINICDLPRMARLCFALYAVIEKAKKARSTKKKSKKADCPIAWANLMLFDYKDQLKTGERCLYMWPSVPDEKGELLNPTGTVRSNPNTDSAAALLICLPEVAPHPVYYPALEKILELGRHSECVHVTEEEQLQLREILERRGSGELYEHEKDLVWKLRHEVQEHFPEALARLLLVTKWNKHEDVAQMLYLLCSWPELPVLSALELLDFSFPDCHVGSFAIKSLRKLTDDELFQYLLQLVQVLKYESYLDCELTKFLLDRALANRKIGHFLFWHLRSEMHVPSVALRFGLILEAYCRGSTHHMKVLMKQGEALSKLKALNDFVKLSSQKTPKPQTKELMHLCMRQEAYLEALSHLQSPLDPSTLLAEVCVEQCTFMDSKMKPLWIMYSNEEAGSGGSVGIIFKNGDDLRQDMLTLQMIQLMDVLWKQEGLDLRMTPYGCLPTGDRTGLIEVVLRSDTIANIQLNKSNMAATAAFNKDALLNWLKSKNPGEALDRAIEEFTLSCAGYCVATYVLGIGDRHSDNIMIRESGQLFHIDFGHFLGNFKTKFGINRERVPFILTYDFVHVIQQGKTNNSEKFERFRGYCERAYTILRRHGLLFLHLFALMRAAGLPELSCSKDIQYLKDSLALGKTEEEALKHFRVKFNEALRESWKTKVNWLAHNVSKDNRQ
T3 sequence (P27986 whole entry partner): as the sequence (P27986 whole entry partner) above
Protocol: as §1, §2, §3, §4, §5, §6, §7, §8

[4] = In vivo DMPK study in male CD-1 mice
Text: Experimental purpose: Male CD-1 mice were used as test animals to determine plasma concentrations of compounds after a single administration and evaluate pharmacokinetic behavior.
Experimental operation: 8 healthy adult male CD-1 mice were selected, 4 for the intravenous injection group and 4 for the oral administration group. The compound to be tested was mixed with an appropriate amount of the solvent (DMSO/solvent/water (10:10:80 v/v/v)) for the intravenous injection group. The mixture solution was vortexed and sonicated to prepare a 1.0 mg/mL clear solution, which was filtered through a microporous membrane for further use. For the oral administration group, the solvent was DMSO/solvent/water (10:10:80 v/v/v). After the compound to be tested was mixed with the solvent, the mixture solution was vortexed and sonicated to prepare a 1.0 mg/mL homogeneous suspension for further use. After 1 mg/kg intravenous administration or 3 mg/kg oral administration in mice, whole blood was collected for a certain period of time to prepare plasma, and the drug concentration was analyzed by LC-MS/MS method, then the pharmacokinetic parameters were calculated using Phoenix WinNonlin software (Pharsight, USA).

PI3K β = target: T4, PI3K β (Homo sapiens, UniProt P42338); assay: Enzyme activity test in vitro (ADP-Glo lipid kinase), PI3K β; assay type: biochemical; conditions: ATP 40 μM, 120 min
T4 construct: purchased Promega V1751
T4 sequence (P42338 whole entry): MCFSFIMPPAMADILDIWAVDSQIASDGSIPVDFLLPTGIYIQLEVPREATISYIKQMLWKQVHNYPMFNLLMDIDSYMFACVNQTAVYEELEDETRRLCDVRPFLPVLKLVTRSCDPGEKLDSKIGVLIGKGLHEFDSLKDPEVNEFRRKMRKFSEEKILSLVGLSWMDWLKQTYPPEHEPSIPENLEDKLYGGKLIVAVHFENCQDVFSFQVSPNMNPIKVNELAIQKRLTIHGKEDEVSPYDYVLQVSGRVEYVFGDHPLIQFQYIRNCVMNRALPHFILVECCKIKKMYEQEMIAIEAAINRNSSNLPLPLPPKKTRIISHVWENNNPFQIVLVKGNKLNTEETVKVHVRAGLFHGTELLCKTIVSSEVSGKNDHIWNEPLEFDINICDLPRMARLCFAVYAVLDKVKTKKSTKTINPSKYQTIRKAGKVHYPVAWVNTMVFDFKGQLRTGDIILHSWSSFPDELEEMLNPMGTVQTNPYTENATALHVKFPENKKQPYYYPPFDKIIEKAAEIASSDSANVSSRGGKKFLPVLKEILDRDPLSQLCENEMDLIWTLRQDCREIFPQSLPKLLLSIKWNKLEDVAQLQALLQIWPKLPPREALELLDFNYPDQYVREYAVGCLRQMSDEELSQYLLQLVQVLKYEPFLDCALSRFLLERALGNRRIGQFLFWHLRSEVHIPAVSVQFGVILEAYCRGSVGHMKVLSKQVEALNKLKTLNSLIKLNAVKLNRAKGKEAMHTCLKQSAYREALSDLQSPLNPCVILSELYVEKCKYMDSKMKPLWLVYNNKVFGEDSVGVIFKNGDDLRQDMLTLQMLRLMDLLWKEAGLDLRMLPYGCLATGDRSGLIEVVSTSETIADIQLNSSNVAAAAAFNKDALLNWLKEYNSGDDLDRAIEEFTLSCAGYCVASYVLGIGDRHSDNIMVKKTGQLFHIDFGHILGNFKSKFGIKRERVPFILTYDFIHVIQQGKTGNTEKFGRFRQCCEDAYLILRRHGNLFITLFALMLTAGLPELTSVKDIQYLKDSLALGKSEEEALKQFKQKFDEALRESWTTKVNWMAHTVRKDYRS
T4 sequence (P27986 whole entry partner): as the sequence (P27986 whole entry partner) above
Protocol: as §1, §2, §3, §4, §5, §6, §7, §8

SMILES: C[C@H](Nc1ccc2c(c1)OCCn1cc(N3C(=O)OC[C@H]3C(F)F)nc1-2)C(N)=O [GDC-0077]
- Tmax ([1]; male, SD, rat, 10 mg/kg, brain tissue, read-out: Tmax, Brain tissue): 1 h
- AUC ([1]; male, SD, rat, 10 mg/kg, cerebrospinal fluid, read-out: AUC, Cerebrospinal fluid): 0.128 µM·h
- Cmax ([1]; male, SD, rat, 10 mg/kg, cerebrospinal fluid, read-out: Cmax, Cerebrospinal fluid): 60.4 nM
- Tmax ([1]; male, SD, rat, 10 mg/kg, cerebrospinal fluid, read-out: Tmax, Cerebrospinal fluid): 1 h
- AUC ([1]; male, SD, rat, 10 mg/kg, plasma, read-out: AUC, Plasma): 3.12 µM·h
- Cmax ([1]; male, SD, rat, 10 mg/kg, plasma, read-out: Cmax, Plasma): 1520 nM
- half-life ([1]; male, SD, rat, 10 mg/kg, plasma, read-out: T1/2, Plasma (converted)): 1.32 h
- Tmax ([1]; male, SD, rat, 10 mg/kg, plasma, read-out: Tmax, Plasma): 0.25 h
- AUC, Brain tissue ([1]; brain tissue): ND, 342 nM * h
- Cmax, Brain tissue ([1]; brain tissue): 147 nM
- Papp A→B at 2.5 h, 2 μM (MDR1): 1.99 ×10⁻⁶ cm/s
- Papp B→A at 2.5 h, 2 μM (MDR1): 16 ×10⁻⁶ cm/s
- IC50 (PI3K γ): 72 nM
- IC50 (PI3K α): 0.75 nM
- fraction unbound [2]: 0.515
- IC50 [3]: 101 nM
- IC50 (PI3K δ): 133 nM
- Oral DNAUC ([4]; 3 mg/kg oral administration): 778 nM · h/mpk
- clearance ([4]; male, CD-1, mouse, plasma, 1 mg/kg intravenous, read-out: Intravenous injection Cl): 26.1 mL/min/kg
- half-life ([4]; male, CD-1, mouse, plasma, 1 mg/kg intravenous, read-out: Intravenous injection T1/2 (converted)): 1.2 h
- Vd ([4]; male, CD-1, mouse, plasma, 1 mg/kg intravenous, read-out: Intravenous injection Vd): 1.09 L/kg
- Cmax ([4]; male, CD-1, mouse, plasma, 3 mg/kg oral administration): 1760 nM
- bioavailability ([4]; male, CD-1, mouse, plasma, 3 mg/kg oral vs 1 mg/kg intravenous, read-out: Oral F %): 50%
- IC50 (PI3K β): 852 nM
